Reference: patent publication US6447748B1, “Benzamide compounds for cancer imaging and therapy” (Research Corporation Technologies, Inc., priority 1993, dated 2002)

Tests used:
[1] = test system: human squamous cell carcinoma xenografts; test: Biodistribution in nude mice xenografted with human squamous cell carcinoma; format: in vivo, Balb/c nu/nu mice; details: for Biodistribution Blood / Biodistribution Bone / Biodistribution Brain / Biodistribution Heart / Biodistribution Intestine / Biodistribution Kidney / Biodistribution Liver / Biodistribution Lung / Biodistribution Spleen / Biodistribution Stomach / Biodistribution Thyroid / Biodistribution Tumor: nude mice, human squamous cell carcinoma, mean (std. dev.), n = 6
Experimental: Non-small cell lung carcinoma cell lines NCI-157, NCI-838 and NCI-1299 were obtained from the National Cancer Institute. The NCI-157 cell line is a squamous carcinoma cell line, while NCI-838 is an adenocarcinoma cell line and NCI-1299 is a large cell lung carcinoma cell. […] Suspension of 5×10^6 cells (viability greater than 95%) in 0.2 mL of medium were inoculated subcutaneously in female Balb/c nu/nu mice. After about two weeks, solid tumors of about 1 cm in diameter appeared in approximately 85% of all inoculated mice. […] Balb/c nu/nu mice (17-22 g) were injected intravenously with 0.2 ml of a saline solution containing [^125I]PAB (5-6 μCi). […] The values obtained were normalized to a mouse weighing 20 g.

[2] = test system: human A2058 melanoma xenografts; test: Biodistribution in nude mice xenografted with human melanotic melanoma; format: in vivo, Balb/c nu/nu mice; details: for RATIO Tumor/Blood / RATIO Tumor/Muscle / Biodistribution Blood / Biodistribution Bone / Biodistribution Brain / Biodistribution Heart / Biodistribution Intestine / Biodistribution Kidney / Biodistribution Liver / Biodistribution Lung / Biodistribution Muscle / Biodistribution Spleen / Biodistribution Stomach / Biodistribution Thyroid / Biodistribution Tumor: nude mice, human melanotic melanoma, mean (std. dev.); for Biodistribution Blood / Biodistribution Bone / Biodistribution Brain / Biodistribution Heart / Biodistribution Intestine / Biodistribution Kidney / Biodistribution Liver / Biodistribution Lung / Biodistribution Muscle / Biodistribution Spleen / Biodistribution Stomach / Biodistribution Thyroid / Biodistribution Tumor: n = 6
Experimental: A2058 tumor cells, derived from a brain metastasis of human malignant melanoma (Todaro et al. 1980 Proc. Natl. Acad. Sci. USA 77:5258) were obtained from the National Institutes of Health. […] Suspension of 5×10^6 cells (viability greater than 95%) in 0.2 mL of medium were inoculated subcutaneously in female Balb/c nu/nu mice. After about two weeks, solid tumors of about 1 cm in diameter appeared in approximately 85% of all inoculated mice. […] Balb/c nu/nu mice (17-22 g) were injected intravenously with 0.2 ml of a saline solution containing [^125I]PAB (5-6 μCi). […] The values obtained were normalized to a mouse weighing 20 g. The differences between [^125I]PAB and [^125I]DAB were examined by Student's unpaired t tests.

For `CCN(CC)CCNC(=O)c1ccc([125I])cc1` [[^125I]DAB, ^125I-N-(diethylaminoethyl)4-iodobenzamide, reference compound], the “Biodistribution Blood” value ([1]; 1 hr.) was 1.35 (0.42) % ID/g, the “Biodistribution Bone” value ([1]; 1 hr.) was 1.85 (0.22) % ID/g and the “Biodistribution Brain” value ([1]; 1 hr.) was 1.57 (0.05) % ID/g. For the same compound, the “Biodistribution Heart” value ([1]; 1 hr.) was 2.21 (0.16) % ID/g, the “Biodistribution Intestine” value ([1]; 1 hr.) was 5.64 (0.58) % ID/g and the “Biodistribution Kidney” value ([1]; 1 hr.) was 7.64 (0.35) % ID/g. The “Biodistribution Liver” value ([1]; 1 hr.) was 13.77 (0.72) % ID/g, the “Biodistribution Lung” value ([1]; 1 hr.) was 6.38 (0.89) % ID/g and the “Biodistribution Spleen” value ([1]; 1 hr.) was 3.58 (0.28) % ID/g. The “Biodistribution Stomach” value ([1]; 1 hr.) was 5.41 (0.53) % ID/g, the “Biodistribution Thyroid” value ([1]; 1 hr.) was 8.22 (0.72) % ID/g and the “Biodistribution Tumor” value ([1]; 1 hr.) was 5.13 (0.74) % ID/g. The “Biodistribution Blood” value ([1]; 6 hr.) was 0.301 (0.04) % ID/g, the “Biodistribution Bone” value ([1]; 6 hr.) was 0.21 (0.01) % ID/g and the “Biodistribution Brain” value ([1]; 6 hr.) was 0.23 (0.05) % ID/g. For the same compound, the “Biodistribution Heart” value ([1]; 6 hr.) was 0.38 (0.11) % ID/g, the “Biodistribution Intestine” value ([1]; 6 hr.) was 1.34 (0.27) % ID/g and the “Biodistribution Kidney” value ([1]; 6 hr.) was 1.07 (0.16) % ID/g. The “Biodistribution Liver” value ([1]; 6 hr.) was 5.84 (0.51) % ID/g, the “Biodistribution Lung” value ([1]; 6 hr.) was 1.07 (0.14) % ID/g and the “Biodistribution Spleen” value ([1]; 6 hr.) was 0.51 (0.08) % ID/g. The “Biodistribution Stomach” value ([1]; 6 hr.) was 2.7 (0.98) % ID/g, the “Biodistribution Thyroid” value ([1]; 6 hr.) was 1.48 (0.55) % ID/g and the “Biodistribution Tumor” value ([1]; 6 hr.) was 2.17 (0.09) % ID/g. The “Biodistribution Blood” value ([1]; 24 hr.) was 0.027 (0.00) % ID/g, the “Biodistribution Brain” value ([1]; 24 hr.) was 0.00 (0.00) % ID/g and the “Biodistribution Heart” value ([1]; 24 hr.) was 0.00 (0.00) % ID/g. For the same compound, the “Biodistribution Intestine” value ([1]; 24 hr.) was 0.05 (0.01) % ID/g, the “Biodistribution Kidney” value ([1]; 24 hr.) was 0.05 (0.00) % ID/g and the “Biodistribution Liver” value ([1]; 24 hr.) was 1.25 (0.10) % ID/g. For the same compound, the “Biodistribution Lung” value ([1]; 24 hr.) was 0.03 (0.00) % ID/g, the “Biodistribution Spleen” value ([1]; 24 hr.) was 0.01 (0.00) % ID/g and the “Biodistribution Stomach” value ([1]; 24 hr.) was 0.15 (0.02) % ID/g. For the same compound, the “Biodistribution Thyroid” value ([1]; 24 hr.) was 0.03 (0.01) % ID/g, the “Biodistribution Tumor” value ([1]; 24 hr.) was 0.18 (0.02) % ID/g and the “amount in livers relative to tumors” value ([1]; 24 hrs., squamous cell carcinoma xenograft) was “about six-fold”. For the same compound, the “RATIO Tumor/Blood” value ([2]; 1 Hour) was 5.68 (2.75), the “RATIO Tumor/Muscle” value ([2]; 1 Hour) was 5.33 (1.65) and the “Biodistribution Blood” value ([2]; 1 Hour) was 1.03 (.318) % ID/g. For the same compound, the “Biodistribution Bone” value ([2]; 1 Hour) was 1.04 (.476) % ID/g, the “Biodistribution Brain” value ([2]; 1 Hour) was 1.04 (.0855) % ID/g and the “Biodistribution Heart” value ([2]; 1 Hour) was 1.67 (.210) % ID/g. For the same compound, the “Biodistribution Intestine” value ([2]; 1 Hour) was 5.04 (1.47) % ID/g, the “Biodistribution Kidney” value ([2]; 1 Hour) was 4.63 (.905) % ID/g and the “Biodistribution Liver” value ([2]; 1 Hour) was 12.7 (1.69) % ID/g. For the same compound, the “Biodistribution Lung” value ([2]; 1 Hour) was 6.32 (1.55) % ID/g, the “Biodistribution Muscle” value ([2]; 1 Hour) was 0.988 (.125) % ID/g and the “Biodistribution Spleen” value ([2]; 1 Hour) was 3.46 (.206) % ID/g. For the same compound, the “Biodistribution Stomach” value ([2]; 1 Hour) was 3.84 (1.98) % ID/g, the “Biodistribution Thyroid” value ([2]; 1 Hour) was 5.68 (1.02) % ID/g and the “Biodistribution Tumor” value ([2]; 1 Hour) was 5.18 (1.31) % ID/g. The “RATIO Tumor/Blood” value ([2]; 6 Hour) was 28.1 (5.84), the “RATIO Tumor/Muscle” value ([2]; 6 Hour) was 33.3 (14.0) and the “Biodistribution Blood” value ([2]; 6 Hour) was 1.03 (0.197) % ID/g. The “Biodistribution Bone” value ([2]; 6 Hour) was 0.100 (.0297) % ID/g, the “Biodistribution Brain” value ([2]; 6 Hour) was 0.132 (.0204) % ID/g and the “Biodistribution Heart” value ([2]; 6 Hour) was 0.150 (.0329) % ID/g. For the same compound, the “Biodistribution Intestine” value ([2]; 6 Hour) was 0.423 (.0963) % ID/g, the “Biodistribution Kidney” value ([2]; 6 Hour) was 0.435 (.0909) % ID/g and the “Biodistribution Liver” value ([2]; 6 Hour) was 3.74 (.427) % ID/g. The “Biodistribution Lung” value ([2]; 6 Hour) was 0.458 (.0993) % ID/g, the “Biodistribution Muscle” value ([2]; 6 Hour) was 0.0967 (.0356) % ID/g and the “Biodistribution Spleen” value ([2]; 6 Hour) was 0.260 (.0990) % ID/g. For the same compound, the “Biodistribution Stomach” value ([2]; 6 Hour) was 0.475 (.164) % ID/g, the “Biodistribution Thyroid” value ([2]; 6 Hour) was 0.400 (.124) % ID/g and the “Biodistribution Tumor” value ([2]; 6 Hour) was 2.83 (.388) % ID/g. The “RATIO Tumor/Blood” value ([2]; 24 Hour) was 15.5 (4.69), the “RATIO Tumor/Muscle” value ([2]; 24 Hour) was 39.7 (9.61) and the “Biodistribution Blood” value ([2]; 24 Hour) was 0.0350 (0.0084) % ID/g. For the same compound, the “Biodistribution Bone” value ([2]; 24 Hour) was 0.0133 (.0052) % ID/g, the “Biodistribution Brain” value ([2]; 24 Hour) was 0.0033 (.0052) % ID/g and the “Biodistribution Heart” value ([2]; 24 Hour) was 0.0233 (.0175) % ID/g. The “Biodistribution Intestine” value ([2]; 24 Hour) was 0.123 (.0717) % ID/g, the “Biodistribution Kidney” value ([2]; 24 Hour) was 0.065 (.0197) % ID/g and the “Biodistribution Liver” value ([2]; 24 Hour) was 1.12 (.232) % ID/g. The “Biodistribution Lung” value ([2]; 24 Hour) was 0.0633 (.0273) % ID/g, the “Biodistribution Muscle” value ([2]; 24 Hour) was 0.0150 (.0084) % ID/g and the “Biodistribution Spleen” value ([2]; 24 Hour) was 0.0350 (.023) % ID/g. For the same compound, the “Biodistribution Stomach” value ([2]; 24 Hour) was 0.445 (.386) % ID/g, the “Biodistribution Tumor” value ([2]; 24 Hour) was 0.553 (.241) % ID/g and the “amount in tumors relative to livers” value ([2]; 24 hrs., melanoma xenograft) was “about half”.
